Like-named read-outs stand apart in the source and are kept apart here.
Assays:
[1] = test system: A375 Human Melanoma Xenograft
Description: Female nu/nu mice (6-8 weeks of age; implanted subcutaneously with 1 mm^3 A375 melanoma fragments in the flank) were sorted into one control and four treatment groups of ten mice each (group mean tumor size of 96-98 mg). […] The study was terminated on Day 60.
The mean days of survival is the number of days after which a neoplasm reached a size of 2.0 g and the animal was euthanized. A complete response is obtained if the tumor is not palpable at the end of the study. A partial response is obtained if the tumor shrinks to a size smaller than its size on Day 1 of the study.

SK-MES carcinoma = test: In vivo evaluation against SK-MES human lung carcinoma xenograft, i.v. (Example 11)
Description: Two antitumor compounds were formulated for an i.v. dosing regime prepared in the following vehicle: 10% ethanol, 10% Cremophor and 80% isotonic saline. […] Other compounds were formulated similarly.
The MTDs for the antitumor compounds were calculated from earlier single dose data for mice receiving i.v. administration of these compounds. […] Vehicle control animals were dosed twice intravenously with half the total volume being given separated by one hour. The study was terminated at Day 60.
The results are summarized in Table 1 and include mean days of survival (MDS), number of toxic deaths, number of survivors, number of complete or partial responses, and number with stable disease. The mean days of survival is the number of days after which a neoplasm reached a size of 1.5 g and the animal was euthanized. A complete response is obtained if the tumor is not palpable at the end of the study. A partial response is obtained if the tumor shrinks to a size smaller than its size on Day 1 of the study.
A tumor scoring system was designed to provide a more quantitative ranking of efficacy (therapeutic potential) among the antitumor agents evaluated against the different human solid tumor xenografts. Each mouse in a study was given a score of from 1 to 10 at the end of the study. The scores can be summarized as follows:
The individual score for each mouse was averaged into a mean score for each treatment group. […]

[2] = test system: A2780 Human Ovarian Carcinoma Xenografts
Description: Other antitumor compounds were similarly formulated. […] The dosing volume was 0.3 ml per 20 g mouse.
Female NCr-nude mice (implanted subcutaneously with 1 mm^3 A2780 ovarian carcinoma fragments in the flank) were sorted into treatment groups of five mice each, except for the Taxotere treatment group including six mice. […] Dosing was initiated on Day 1. The antitumor compounds were given i.v. at an estimated maximum tolerated dose (MTD) appropriate for each agent on a qd x 1 schedule (single administration of compound). […] Taxotere was given i.v. on a qd x 1 schedule at a dose of 70 mg/kg. The vehicle was administered i.v. to control mice in Group 1 on the qd x 1 schedule. Treatment groups are detailed in Table 7. The study was terminated on Day 60.
The results are summarized in Table 8 and include mean days of survival (MDS), number of toxic deaths, number of survivors, number of complete or partial responses, and number with stable disease. The mean days of survival is the number of days after which a neoplasm reached a size of 2.0 g and the animal was euthanized. A complete response is obtained if the tumor is not palpable at the end of the study. A partial response is obtained if the tumor shrinks to a size smaller than its size on Day 1 of the study.

HCT116 = test: In Vitro cytotoxicity measured by the cell colony formation assay; format: cell-based; conditions: Homo sapiens, HCT-116; 72 h drug incubation, colonies counted after 7 days; concentration producing 50% inhibition of colony formation; read-out: IN VITRO ID 50 (nm) HCT116
[3] = test system: HCT116 Human Colon Carcinoma Xenograft; conditions: for Mean Score: tumor score 1 to 10, group mean
[4] = test system: MX-1 Human Breast Carcinoma Xenograft; conditions: i.v. qd x 1 (Taxol 36 mg/kg split dose, 1393 72.6 mg/kg)
Description: Antitumor compounds were formulated for an i.v. dosing regime (single i.v. bolus on qd x 1 schedule) prepared in the following vehicle: 5% ethanol, 5% Cremophor and 90% isotonic saline. […] Other compounds were similarly formulated. […] The dosing volume was 0.3 ml per 20 g mouse.
All vehicle control animals in the split dosing regimes were dosed twice intravenously with half the total volume being given separated by one hour. The study was terminated on Day 60.
The mean days of survival is the number of days after which a neoplasm reached a size of 2.0 g and the animal was euthanized. A complete response is obtained if the tumor is not palpable at the end of the study. A partial response is obtained if the tumor shrinks to a size smaller than its size on Day 1 of the study. […]

[5] = 40 mg/kg single oral bolus, 10 mice/group, study end Day 60
[6] = i.v. split dose qd x 1 at MTD (Taxol 36 mg/kg, 1393 72.1 mg/kg), 6 mice/group, Day 60
[7] = Taxol i.p. 15 mg/kg qd x 5, 5 mice, Day 60
[8] = i.v. qd x 1 (mg/kg: Taxol 24, 1351 75.3, 1401 107.6, 1418 107.6, Taxotere 70), Day 60
[9] = HCT116, Taxol i.p. 18 mg/kg qd x 5
[10] = HCT116, Taxol i.p. 18 mg/kg qd x 5, 5 mice, Day 60
[11] = HCT116, i.v. Day 1 (Taxol 36 mg/kg split dose, 1393 73 mg/kg single dose), 5 mice/group, Day 60

CC(=O)O[C@H]1C(=O)[C@@]2(C)[C@H]([C@H](OC(=O)c3ccccc3)[C@]3(O)C[C@H](OC(=O)[C@H](O)[C@@H](NC(=O)c4ccccc4)c4ccccc4)C(C)=C1C3(C)C)[C@]1(OC(C)=O)CO[C@@H]1C[C@@H]2O [Taxol, paclitaxel, reference compound]
Complete Response [1, 5]: 0
Partial Response [1, 5]: 1
Stable Disease [1, 5]: 1
Survivors [1, 5]: 2
Toxic Deaths [1, 5]: 0
MDS (n) ([1]; 40 mg/kg single oral bolus, 10 mice/group, study end Day 60, days until tumor reached 2.0 g): 23.7 ± 3.0 (8) days
activity ([1]; A375, paclitaxel 40 mg/kg single oral bolus (Group 2)): not active
survival extension compared to vehicle controls (SK-MES carcinoma; Taxol 36 mg/kg i.v.): 30%
tolerability (SK-MES carcinoma; i.v. at MTD): well tolerated
MDS (n) (SK-MES carcinoma; i.v. split dose qd x 1 at MTD (Taxol 36 mg/kg, 1393 72.1 mg/kg), 6 mice/group, 1.5 g cut-off, Day 60): 16 ± 2.0 (6) days
Complete Response (SK-MES carcinoma; [6]): 0
Partial Response (SK-MES carcinoma; [6]): 0
Stable Disease (SK-MES carcinoma; [6]): 0
Survivors (SK-MES carcinoma; [6]): 0
Toxic Deaths (SK-MES carcinoma; [6]): 0
Mean Score (SK-MES carcinoma; i.v. split dose qd x 1 at MTD (Taxol 36 mg/kg, 1393 72.1 mg/kg), tumor score 1 to 10 per mouse, group mean): 1.3 ± 0.3
toxicity ([2]; Taxol i.p. 15 mg/kg qd x 5): highly toxic
Complete Response [2, 7]: 0
Partial Response [2, 7]: 0
Stable Disease [2, 7]: 0
Survivors [2, 7]: 0
Mean Score ([2]; Taxol i.p. 15 mg/kg qd x 5, tumor score 1 to 10, group mean): 0.6 ± 0.6
MDS (n) ([2]; i.v. qd x 1 (mg/kg: Taxol 24, 1351 75.3, 1401 107.6, 1418 107.6, Taxotere 70), 2.0 g cut-off, Day 60): 21.9 ± 5.5 (5) days
Complete Response [2, 8]: 0
Partial Response [2, 8]: 0
Survivors [2, 8]: 1
Toxic Deaths [2, 8]: 0
Mean Score ([2]; i.v. qd x 1 (mg/kg: Taxol 24, 1351 75.3, 1401 107.6, 1418 107.6, Taxotere 70), tumor score 1 to 10, group mean): 1.8 ± 0.4
survival extension compared to Group 1 controls ([2]; i.v. qd x 1 (mg/kg: Taxol 24, 1418 107.6, Taxotere 70)): 87%
IC50 (HCT116): 2.1 nM
increase in survival compared to control Group 1 ([3]; HCT116, Taxol 36 mg/kg i.v. qd x 1): 24%
survival extension compared to Group 1 control mice [3, 9]: 84%
Complete Response [3, 10]: 0
Stable Disease [3, 10]: 0
Survivors [3, 10]: 1
Toxic Deaths [3, 10]: 0
Mean Score [3, 9]: 3.6 ± 1.4
MDS (n) ([3]; HCT116, i.v. Day 1 (Taxol 36 mg/kg split dose, 1393 73 mg/kg single dose), 5 mice/group, 2.0 g cut-off, Day 60): 27.5 ± 1.7 (4) days
Complete Response [3, 11]: 0
Partial Response [3, 11]: 0
Survivors [3, 11]: 1
Toxic Deaths [3, 11]: 0
Mean Score ([3]; HCT116, i.v. Day 1 (Taxol 36 mg/kg split dose, 1393 73 mg/kg single dose)): 2.2 ± 0.5
tolerability ([3]; mouse, in vivo, iv, 73 mg/kg): well-tolerated
Complete Response ([4]; 6 mice/group, Day 60): 0
Partial Response ([4]; 6 mice/group, Day 60): 0
Survivors ([4]; 6 mice/group, Day 60): 1
Mean Score ([4]; tumor score 1 to 10, group mean): 1.2 ± 0.8

Source: EP1285918A1, “C7 Ester substituted taxanes as antitumor agents” (Florida State University Research Foundation, Inc., priority 2001, dated 2003)
